Experimental data published in patent US20210085676A1, “TREATMENT FOR AGE- AND OXIDATIVE STRESS-ASSOCIATED MUSCLE ATROPHY AND WEAKNESS” (Oklahoma Medical Research Foundation, priority 2018, published 2021).
Entries after “also recorded” stand apart in the source; their conditions may differ.

Tests used:
[1] = tested on: SERCA; test: SERCA Ca2+-dependent ATPase activity in gastrocnemius muscle homogenates of treated mice; type: in vivo, mouse; conditions: Sod1−/− mice, 50 mg/kg i.p. 3 times per week, 7 weeks
Protocol: Animals. The generation and characterization of the Sod1^−/− mice is described in detail elsewhere (3, 24). Female ≈2 months old C57BL/6J wild-type (WT; n=12-18) and Sod1^−/− mice (n=12-18) were divided into four groups and treated with either vehicle (10% DMSO, 10% Tween-80 in PBS) or CDN1163 (50 mg/kg) by intraperitoneal injection three times per week for 7 weeks. Care and management of the mice was executed according to The Guide for the Care and Use of Laboratory Animals and approved by the institutional Animal Care and Use Committee at the Oklahoma Medical Research Foundation (OKC, Okla., USA). SERCA activity. The measurement of SERCA activity was performed in the muscle homogenates at 37° C. using a spectrophotometric assay as previously described (26). CDN1163 rescues the SERCA activity in the Sod1^−/− mice. Ca^2+-dependent Ca^2+-ATPase activity was measured in gastrocnemius muscle homogenates to determine the effects of CDN1163 on SERCA function. […] Levels of SERCA1 and SERCA2 mRNA and protein were not changed in Sod1^−/− mice and were not altered by CDN1163 treatment (FIGS. 1C, 1D).

[2] = tested on: ob/ob mouse model; conditions: reference 17; cited from earlier work
[3] = tested on: EDL muscle of Sod1−/− mice; test: Contractile measurements in isolated EDL muscle of treated Sod1−/− mice; type: in vivo, mouse
Protocol: Animals. The generation and characterization of the Sod1^−/− mice is described in detail elsewhere (3, 24). Female ≈2 months old C57BL/6J wild-type (WT; n=12-18) and Sod1^−/− mice (n=12-18) were divided into four groups and treated with either vehicle (10% DMSO, 10% Tween-80 in PBS) or CDN1163 (50 mg/kg) by intraperitoneal injection three times per week for 7 weeks. Care and management of the mice was executed according to The Guide for the Care and Use of Laboratory Animals and approved by the institutional Animal Care and Use Committee at the Oklahoma Medical Research Foundation (OKC, Okla., USA). Contractile Measurements. Contractile force generation was measured in isolated extensor digitorum longus (EDL) muscle using a 1200A in vitro test system (Aurora Scientific Inc.) as described elsewhere (7). Briefly, muscles were individually tied to a model 300C servomotor (Aurora Scientific Inc.) and fixed within a water bath containing an oxygenated (95% O2, 5% CO2) Krebs-Ringer solution (in mM: 137 NaCl, 5 KCl, 1 MgSO4, 1 NaH2PO4, 24 NaHCO3, 2 CaCl2) maintained at 32 C. Computer controlled stimulation was applied through a model 701C stimulator (Aurora Scientific Inc.). Force frequency curves were generated with stimulation frequencies between 1 and 300 Hz, while the fatigue protocol consisted of repeated 150 Hz stimuli, every 5 s for 400 s. All data were recorded and analyzed using commercial software (DMC and DMA, Aurora Scientific). Specific force (N/cm^2) was measured using muscle length and mass. Example 3. CDN1163 prevents contractile dysfunction in the Sod1^−/− mice. In agreement with the inventor's previous findings, the inventors measured a significant decline in the in-vitro specific force measured in EDL muscle of Sod1^−/− mice (˜19%, p<0.05) when compared to WT mice (FIG. 3A). […] On the other hand, CDN1163 has no effect on the time to peak contraction (TTP) and half relaxation time (RT1/2) in the EDL muscle during twitch contractions (FIGS. 3B, 3C).

[4] = tested on: F2-isoprostanes in quadriceps muscle; test: Oxidative damage by F2-isoprostane level in quadriceps muscle of treated mice; type: in vivo, mouse; conditions: Sod1−/− mice
Protocol: Animals. The generation and characterization of the Sod1^−/− mice is described in detail elsewhere (3, 24). Female ≈2 months old C57BL/6J wild-type (WT; n=12-18) and Sod1^−/− mice (n=12-18) were divided into four groups and treated with either vehicle (10% DMSO, 10% Tween-80 in PBS) or CDN1163 (50 mg/kg) by intraperitoneal injection three times per week for 7 weeks. Care and management of the mice was executed according to The Guide for the Care and Use of Laboratory Animals and approved by the institutional Animal Care and Use Committee at the Oklahoma Medical Research Foundation (OKC, Okla., USA). Analysis of oxidative damage by F2-isoprostane level. The levels of F2-isoprostanes in quadriceps muscle were measured using thin layer chromatography and GC-mass spectrometry as described previously (25). CDN1163 reduces the oxidative damage in the Sod1^−/− mice. The inventors have previously reported increased oxidative damage in the skeletal muscles of Sod1^−/− mice (6) that might be contributing to muscle atrophy and weakness. […] Therefore the inventors investigated whether CDN1163 can prevent oxidative stress-induced damage by measuring the levels of F2-isoprostanes, an indicator of lipid peroxidation, in the quadriceps muscles.

[5] = tested on: Sod1−/− mice; test: Body mass and gastrocnemius muscle mass in Sod1−/− mouse model of accelerated sarcopenia; type: in vivo; conditions: 50 mg/kg i.p. 3 times per week, 7 weeks
Protocol: Animals. The generation and characterization of the Sod1^−/− mice is described in detail elsewhere (3, 24). Female ≈2 months old C57BL/6J wild-type (WT; n=12-18) and Sod1^−/− mice (n=12-18) were divided into four groups and treated with either vehicle (10% DMSO, 10% Tween-80 in PBS) or CDN1163 (50 mg/kg) by intraperitoneal injection three times per week for 7 weeks. Care and management of the mice was executed according to The Guide for the Care and Use of Laboratory Animals and approved by the institutional Animal Care and Use Committee at the Oklahoma Medical Research Foundation (OKC, Okla., USA). CDN1163 prevents gastrocnemius muscle atrophy in the Sod1^−/− mice. […] At 2 months of age, neither absolute (FIG. 2B) nor normalized (FIG. 2C) gastrocnemius muscle mass is statistically lower in Sod1^−/− versus WT female mice. However, at the end of the 7 week period (˜4 months of age) there is a significant decrease in both absolute and normalized gastrocnemius muscle mass in the untreated Sod1^−/− mice compared to untreated WT mice (FIGS. 2B, 2C) consistent with the inventor's previous reports(3).

[6] = tested on: isolated mitochondria from the gastrocnemius muscle; test: Mitochondrial H2O2 production (Amplex red-HRP) in isolated mitochondria from gastrocnemius muscle of treated mice; type: in vivo, mouse; conditions: Sod1−/− mice
Protocol: Animals. The generation and characterization of the Sod1^−/− mice is described in detail elsewhere (3, 24). Female ≈2 months old C57BL/6J wild-type (WT; n=12-18) and Sod1^−/− mice (n=12-18) were divided into four groups and treated with either vehicle (10% DMSO, 10% Tween-80 in PBS) or CDN1163 (50 mg/kg) by intraperitoneal injection three times per week for 7 weeks. Care and management of the mice was executed according to The Guide for the Care and Use of Laboratory Animals and approved by the institutional Animal Care and Use Committee at the Oklahoma Medical Research Foundation (OKC, Okla., USA).
Mitochondrial function. Mitochondrial isolation and assays for H2O2 generation were performed in gastrocnemius muscle as described previously by the inventor's laboratory (27). Freshly isolated mitochondria were used for H2O2 release assay using the Amplex red-HRP method. Isolated mitochondrial are exposed to respiratory substrates and HRP (1 U Ml-1) in the assay buffer catalyzes the H2O2-dependent oxidation of non-fluorescent Amplex Red (80 μM) (Molecular Probes, Eugene, Oreg., USA) to fluorescent resofurin red (excitation λ=544 nm, emission λ=590 nm at 37° C.). The slope of the increase in fluorescence was converted to the rate of H2O2 production with standard curve.
CDN1163 attenuates mitochondrial dysfunction in the Sod1^−/− mice. It is well documented that elevated levels of cytosolic Ca^2+ lead to increased mitochondrial ROS production (16). The inventors have previously shown that the mitochondria from the Sod1^−/− mice show structural and functional defects (4, 5). To test whether the activation of SERCA pump function improves mitochondrial function, the inventors measured mitochondrial ROS production as H2O2 emission using isolated mitochondria from the gastrocnemius muscle. […] CDN1163 treatment in the Sod1^−/− mice returns glutamate/malate stimulated H2O2 generation to WT levels (FIG. 4A).

[7] = tested on: old wildtype mice; test: Aging study in old wildtype mice (24-26 months), 8-10 months treatment; type: in vivo, mouse
Text: The present inventors studied a group of old wildtype mice (24-26 months) with and without 8-10 months treatment with CDN1163. […] Further, the old mice show significant atrophy of the gastrocnemius muscles when compared to baseline group (≈10%, p<0.05). […] The inventors also measured the muscle force generating capacity in the mouse EDL muscles because of large body of literature showing reduced strength of extensor digitorum longus (EDL) muscle with aging. EDL muscle weakness in the old wild-type mice (≈11%, p<0.05) was consistent with previous studies, when compared to the baseline group. […] This effect was consistent at stimulation frequencies for maximal and sub-maximal (≈50% of maximal force) tetanic forces normalized for muscle mass. […] As such, CDN1163 was able to reduce muscle weakness, while not having side-effects related to muscle half relaxation time and time to maximal twitch force.

[8] = EDL muscle, twitch contractions, 7 weeks treatment
[9] = 50 mg/kg i.p. 3 times per week, 7 weeks
[10] = old wildtype mice 24-26 months, versus 16 month old baseline

Cc1ccc2cccc(NC(=O)c3ccc(OC(C)C)cc3)c2n1 [CDN1163, 4-(1-Methylethoxy)-N-(2-methyl-8-quinolinyl)-benzamide]
Maximum Ca2+ dependent SERCA (SR Ca2+-ATPase) activity [1]: completely restored | Plasma levels of malondialdehyde (marker of oxidative stress) [2]: reduce | Half relaxation time (RT1/2) [3, 8]: without affecting; also recorded: no effect | Time to twitch peak tension / time to peak contraction (TTP) [3, 8]: without affecting; also recorded: no effect | Specific force of EDL muscle ([3]; Sod1−/− mice, 50 mg/kg i.p. 3 times per week, 7 weeks, measured in vitro, 50 mg/kg): completely restored | Reduction of oxidative damage in muscle tissue measured as F2-isoprostanes [4, 9]: 50% | F2-isoprostanes levels (lipid peroxidation) ([4]; quadriceps muscle, 7 weeks treatment): reduces; also recorded: prevented this increase | Increase in (normalized) gastrocnemius muscle mass versus untreated Sod1−/− mice ([5]; Sod1−/− mice): 23% | Gastrocnemius muscle mass / atrophy ([5]; Sod1−/− mice, 50 mg/kg): restores; also recorded: completely prevented this atrophy | Body weight (body mass) ([5]; WT or Sod1−/− mice, 50 mg/kg): did not alter | Mitochondrial ROS generation [6, 9]: reversed | Mitochondrial H2O2 production, glutamate/malate stimulated (state-2, complex 1-linked) ([6]; 7 weeks treatment): reduces; also recorded: to WT levels | Mitochondrial H2O2 production, State-1 respiration ([6]; without external substrate, 7 weeks treatment): reduces; also recorded: do not show elevated levels | Muscle half relaxation time ([7]; old wildtype mice): no significant effects | Time to maximal twitch force ([7]; old wildtype mice): no significant effects | Age-related atrophy of the gastrocnemius muscles [7, 10]: completely prevented | Age-related reduction in body weight [7, 10]: did not prevent | Age-related decline in EDL muscle force ([7]; old wildtype mice, maximal and sub-maximal tetanic forces normalized for muscle mass): prevented this decline in force
